# According to article PMC5004175, “Abcb1 in Pigs: Molecular cloning, tissues distribution, functional analysis, and its effect on pharmacokinetics of enrofloxacin” (Scientific Reports, 2016):
# Read-outs that look alike come from different tables or passages of the source.
# Legend:
# P-gp = P-gp inhibition (data not shown)
# [1] = Bidirectional transport assay of enrofloxacin in MDCK parental cell monolayers; type: in vitro ADME, canine; details: dog, MDCK cells, enrofloxacin 12 μM alone
# Description: (§1) Transport assays were carried out as described[45] with minor modifications. MDCK and MDCK-pAbcb1 with a density of 6.6 × 10^4 cells/insert were seeded on a polyethylene terephthalate membrane insert (Millicell cell culture inserts, 1.0 μm pore size, 6.5 mm diameter) in 24-well culture plates. […] Samples were stored at −20 °C. All experiments were conducted in triplicate.
# (§2) In brief, plasma was thawed at room temperature and centrifuged at 2,000 × g for 5 min. […] The organic phase was evaporated to dryness under a nitrogen stream and residue was resuspended with mobile phase solution. The samples from the transport assays were directly evaporated to dryness under a nitrogen stream and 40 μL of the mobile phase solution was used to concentrate the samples for 5 times. Twenty microliters of the mixture were injected into the HPLC column (Kromasil C18 columns, […] particle size, 250 × 4.6 mm). The mobile phase composition was 0.1 M phosphoric acid (adjusted pH to 3.5 with triethylamine)/acetonitrile (84:16, v/v) and the flow rate of mobile phase was set to 0.85 mL/min. UV absorbance was measured at 278 nm.
# (§3) Apparent permeability coefficients (Papp) were calculated using the following equation: Papp = (dQ/dt)/(A × C0), where A is the area of filter membrane, C0 is the initial concentration of the test drug, dQ is the amount of transported drug, and dt is time elapsed. The efflux ratio (ER) was calculated from (Papp B → A)/(Papp A → B)[59]. Where Papp B → A and Papp A → B are BL to AP and AP to BL apparent permeability coefficients, respectively. The net efflux ratio was calculated using the following equation: Net efflux ratio = efflux ratio in MDCK-pAbcb1/efflux ratio in MDCK.
# porcine P-gp [2] = test: Bidirectional transport assay of enrofloxacin in MDCK-pAbcb1 cell monolayers; type: in vitro ADME, pig
# Description: as §1, §2, §3
# in vivo = details: pig, plasma, po, 10 mg/kg
# [3] = Pharmacokinetics of oral enrofloxacin in healthy pigs with/without verapamil; details: enrofloxacin 10 mg/kg po alone, mean ± SEM, n = 4
# [4] = Tolerability of P-gp inhibitor pre-treatment in piglets; type: in vivo; details: piglets treated with the P-gp inhibitor; dose not given
# porcine P-gp [5] = details: 5 μM Rho123, during 2 h, p < 0.01
compound,measurement,setting,value
COc1ccc2cc3[n+](cc2c1OC)CCc1cc2c(cc1-3)OCO2 [Berberine],Inhibition of P-gp,P-gp,can significantly inhibit P-gp
"CCN1CCN(c2cc3c(cc2F)c(=O)c(C(=O)O)cn3C2CC2)CC1 [ENRO, enrofloxacin]","Papp A→B at 120 min, 12 μM","[1]; 120 min, mean ± SEM, n = 3",12.3 ± 0.59 ×10⁻⁶ cm/s
same,"Papp B→A at 120 min, 12 μM","[1]; 120 min, mean ± SEM, n = 3",12.9 ± 1.65 ×10⁻⁶ cm/s
same,"efflux ratio at 120 min, 12 μM",[1]; Papp B→A / Papp A→B,1.04 ± 0.11
same,Net efflux ratio,"porcine P-gp [2]; enrofloxacin 12 μM alone, efflux ratio in MDCK-pAbcb1 / efflux ratio in MDCK",2.48
same,"Papp B→A at 120 min, 12 μM","porcine P-gp [2]; pig, MDCK-MDR1, MDCK-pAbcb1 cells, enrofloxacin 12 μM alone, 120 min, mean ± SEM, n = 3",19.9 ± 1.57 ×10⁻⁶ cm/s
same,"efflux ratio at 120 min, 12 μM","porcine P-gp [2]; pig, MDCK-pAbcb1, MDCK-pAbcb1 cells, enrofloxacin 12 μM alone, Papp B→A / Papp A→B, read-out: Efflux ratio",2.58 ± 0.25
same,"efflux ratio at 120 min, 12 μM","porcine P-gp [2]; pig, MDCK-pAbcb1, enrofloxacin 12 μM alone, efflux ratio in MDCK-pAbcb1 / efflux ratio in MDCK, read-out: Net efflux ratio",> 2
same,"Papp A→B at 120 min, 12 μM","porcine P-gp [2]; pig, MDCK-pAbcb1 cells, enrofloxacin 12 μM alone, 120 min, mean ± SEM, n = 3",7.78 ± 1.28 ×10⁻⁶ cm/s
same,Cmax,in vivo,3390 ± 120 ng/mL
same,Tmax,in vivo,2.01 ± 0.09 h
same,k el,in vivo,7.78e-05 s⁻¹
same,AUC (area under the plasma concentration-time curve),[3],13.57 ± 0.96 (μg/mL)·h
same,CL/F (Clearance/F),[3]; plasma,0.47 ± 0.01 (mg/kg/h)/(μg/mL)
same,Ka (absorption rate constant),[3]; plasma,0.82 ± 0.11 h⁻¹
same,T1/2ka (absorption half-life),[3]; plasma,0.88 ± 0.20 h
same,T1/2ke (elimination half-life),[3]; plasma,2.50 ± 0.23 h
same,V/F (volume of distribution/F),[3]; plasma,1.69 ± 0.18 (mg/kg)/(μg/mL)
C/C=C/C[C@@H](C)C(=O)[C@H]1C(=O)N[C@@H](C(C)C)C(=O)N(C)CC(=O)N(C)[C@@H](CC(C)C)C(=O)N[C@@H](C(C)C)C(=O)N(C)[C@@H](CC(C)C)C(=O)N[C@@H](C)C(=O)N[C@H](C)C(=O)N(C)[C@@H](CC(C)C)C(=O)N(C)[C@@H](CC(C)C)C(=O)N(C)[C@@H](C(C)C)C(=O)N1C [PSC-833],Adverse effect in treated piglets,[4],some animals began vomiting
"COC(=O)c1ccccc1-c1c2ccc(=N)cc-2oc2cc(N)ccc12 [Rho123, rhodamine 123]",Accumulation of Rho123 in MDCK-pAbcb1 cells compared with MDCK cells,porcine P-gp [5],accumulated less Rho123 than MDCK cells
